Data taken from PMC9445589, “Apolipoprotein E mimetic peptide COG1410 combats pandrug-resistant Acinetobacter baumannii” (Frontiers in Microbiology, 2022).
In brackets after ≈: the same amount, converted by molar mass. Entries after “also recorded” stand apart in the source; their conditions may differ. Non-standard residues stand in square brackets, D forms with d. Residues, ends and D or L forms follow the SMILES beside them. Aib = CC(C)(N)C(=O)O

How the values were obtained:
[1] = system: A. baumannii YQ4 preformed biofilm; assay: biofilm eradication assay, crystal violet; type: cell-based, Acinetobacter baumannii; conditions: 48 h preformed biofilm, 24 h treatment
Method: Biofilm eradication assay was performed as described previously (Mwangi et al., [2019]). A. baumannii YQ4 culture of log phase was diluted in fresh LB broth to OD600 0.01 and dispensed to a 96-well PVC plate with 200 μl per well. Plates were incubated at 37°C for 48 h and washed with PBS three times. Serial dilutions of COG1410 (0.5–128 μg/ml) were prepared using the same media, and 200 μl were dispensed into each well. Each concentration was determined in eight wells. LB without COG1410 was used as untreated control. After incubation for another 24 h, the remaining biofilm was quantified as described above. The experiments were performed in triplicate.

[2] = system: pandrug-resistant (PDR) Acinetobacter baumannii YQ4
[3] = system: Mycobacterium smegmatis MC^2155; conditions: Mycobacterium MC^2155
[4] = system: MDR Klebsiella oxytoca 7–85; conditions: microdilution method in the corresponding broth
[5] = system: vancomycin-resistant Enterococcus faecium 11–47; conditions: vancomycin-resistant 11–47
A. baumannii YQ4 [6] = assay: Live/Dead BacLight SYTO-9/PI staining, confocal microscopy; type: cell-based, Acinetobacter baumannii; conditions: 1× MIC COG1410 (16 μg/ml) or 5× MIC polymyxin B (80 μg/ml), 37°C, 30 min
Method: The damage to the cytoplasmic membrane was determined as described previously (Farkas et al., [2017]), with the Live/Dead BacLight bacterial viability kit (Invitrogen L7012). The log-phase culture of A. baumannii YQ4 was washed two times and suspended in PBS with the final OD600 of 0.1. […] Then, the cells were stained with 7.5 μM SYTO-9 and 30 μM propidium iodide (PI) in dark for 15 min. In total, 5 μl of culture was spotted on a clean slide coated with a thin layer of 1% agarose. The fluorescence was observed by Olympus FV3000 confocal laser scanning microscope. For SYTO-9, the excitation and emission were 483 and 503 nm, respectively. For PI, the excitation and emission were 493 and 636 nm, respectively.

[7] = cytotoxicity assay, Cell Counting Kit 8; conditions: human, L02 cells (human hepatic, normal liver cell)
Method: Briefly, 100 μl of human hepatic L02 cells was seeded in the 96-well plate with 4 × 10^3 per well in RPMI-1640 medium containing 20% FBS and incubated at 37°C in a 5% CO2 atmosphere for 24 h. The cells without exposure to peptides were used as a negative control. Then, the L02 cells were incubated with different concentrations of COG1410 for another 24 h. Then, 10 μl of CCK8 solution was added to each well. After 2 h of incubation, the optical absorbance at 450 nm was measured with a BioTek synergy H1 plate reader. […] The experiments were done in triplicate.

A. baumannii YQ4 [8] = assay: scanning electron microscopy (SEM) of treated cells; type: cell-based, Acinetobacter baumannii; conditions: 1× MIC (16 μg/ml), PBS, 37°C, 30 min
Method: The log-phase culture of A. baumannii YQ4 was prepared as described above, harvested, and washed once with PBS. The pellets were suspended in PBS supplemented with 1 × COG1410 (16 μg/ml) or 1 × polymyxin B (16 μg/ml) and incubated at 37°C for 30 min. The untreated culture was used as a positive control to observe the morphology of the intact cell. […] After washing three times with PBS, the cells were post-fixed in 1% osmium at 4 °C for 1 h. After washing in distilled water for 1 h, the bacteria were dehydrated in the ascending concentrations of ethanol. Finally, these samples were transferred to ThermoFisher Quattro SEM for image collection after tert-butanol freeze-drying and sputter coating.

A. baumannii YQ4 biofilm = assay: static biofilm inhibition, crystal violet; type: cell-based, Acinetobacter baumannii; conditions: 48 h
Method: Static biofilm inhibition was performed as described previously (Gaddy and Actis, [2009]). Briefly, the log-phase culture of A. baumannii YQ4 was prepared as described above. About 200 μl of culture was seeded in each cell of the 96-well PVC plate with OD600 of 0.01 (ca. 1 × 10^6 CFU/ml), which was exposed to different COG1410 solutions with the final concentrations ranging from 0.5 to 128 μg/ml. Each concentration was determined in eight wells. After incubation at 37°C for 48 h, the planktonic bacteria were removed by washing three times with sterilized water, followed by fixing in methanol for 15 min and staining with 0.1% crystal violet (CV) for 15 min. Excess CV was washed off, and the bound CV was eluted from the biofilm into 150 μl of 95% ethanol and quantitated spectrophotometrically at 600 nm using a Biotek Synergy H1 plate reader. The experiments were performed in triplicate.

[9] = system: methicillin-resistant Staphylococcus aureus 14–55; conditions: microdilution method in the corresponding broth
MDR Serratia mucosa YQ15 = conditions: microdilution method in the corresponding broth
[10] = stability in human plasma, disk diffusion read-out; conditions: 100% human plasma, 10 mg/ml, 37°C, first 2 h; disk diffusion on A. baumannii YQ4, three independent experiments
Method: In order to determine the stability in human plasma, COG1410 was dissolved in1 ml of 100 % human plasma with the final concentration of 10 mg/ml and incubated at 37°C without shaking. Aliquots of 100 μl were taken at 0, 1, 2, 4, 6, 8, and 10 h. The log-phase culture of A. baumannii YQ4 was prepared as described above. About 200 μl of culture was mixed with 6 ml of 0.8% soft agar to make a two-layered plate. After air drying for 30 min, four 6-mm paper disks were placed on the top, and 6-μl aliquots of COG1410 at different time points were dropped on the paper disks. After 18 h of incubation at 37°C, the inhibition zones were recorded by a digital camera, and the inhibition diameters were measured by image J. Three independent experiments were performed.
About 10 mg/ml of COG1410 was incubated with 100% human plasma at 37°C and sampled at different time points. The stability of COG1410 was determined by evaluating the antibacterial activity against PDR A. baumannii YQ4 through the disk diffusion assay. The diameters of inhibition were measured. Three independent experiments were performed and data were represented as mean ± SD. The statistical significance between initial and different points was analyzed by Student's t-test. ^* indicated p < 0.05; ^*** indicated p < 0.001. Click here for additional data file.

[11] = system: PDR Klebsiella pneumoniae 84; conditions: microdilution method in the corresponding broth
[12] = system: EBSL-producing Proteusbacillus vulgaris YQ19; conditions: microdilution method in the corresponding broth
A. baumannii YQ4 [13] = assay: dynamic time-kill assay in PBS
plasmid pUC18 = assay: DNA-binding assay, gel retardation
Method: Gel retardation experiments were conducted as previously described (Yan et al., [2013]). Briefly, 300 ng of the plasmid pUC18 was mixed with different concentrations of COG1410 in 30 μl of buffer (10 mM Tris-HCl and 1 mM EDTA buffer, pH 8.0) and incubated at room temperature for 30 min. The reaction mixtures were mixed with 1 × native loading buffer and subjected to 1.5% agarose gel electrophoresis. The migration of DNA was detected by the fluorescence of GelRed dye.

[14] = system: vancomycin-resistant Enterococcus faecalis 11–34; conditions: vancomycin-resistant 11–34
A. baumanii YQ4 = assay: induction of resistance through serial passage; conditions: sub-MIC exposure, 55 passages
[15] = system: Porphyromonas gingivalis ATCC33277
A. baumannii YQ4 [16] = assay: antibacterial activity (LC99.9) in PBS or 50% pooled human plasma; type: cell-based, Acinetobacter baumannii; conditions: 2 h, 37°C
Method: The antibacterial activity of COG1410 in plasma was performed as described previously (De Breij et al., [2018]). Briefly, the log-phase culture of A. baumannii YQ4 was exposed to different concentrations of COG1410 in PBS or PBS supplemented with 50% (v/v) pooled human plasma. After incubation with shaking at 200 rpm at 37°C for 2 h, the CFU was counted on LB agar. LC99.9 indicates the lowest peptide concentration that kills ≥99.9% of bacteria. The experiments were conducted independently in triplicate.

[17] = system: A. baumannii ATCC19606 and two LPS-modified strains, pmrA^P102R and pmrA^P102RmiaA^I221V; assay: MIC against LPS-modified strains; type: cell-based, Acinetobacter baumannii; conditions: MIC in LB broth, wild type versus mutants
Method: The growth curve was measured in duplicate, with eight wells for each treatment in a 96-well plate each time. […] Experiments were conducted in triplicate. Data indicated mean ± SD values.

[18] = system: MDR Citrobacter freundii 7–83; conditions: microdilution method in the corresponding broth
[19] = system: human red blood cell (RBC); conditions: 1 h
Method: The anti-coagulated (citrate) whole blood sample was pelleted by centrifugation at 700 g for 8 min, washed three times with PBS, and suspended in 0.5% (vol/vol) PBS. […] The highest concentration was 512 μg/ml (363 μM). PBS and Triton X-100 (0.1%) were used as negative and positive controls, respectively. The plate was incubated at 37°C for 1 h, followed by centrifugation at 1,000 rpm for 5 min at 4°C. Aliquots of 60 μl of the supernatant from each well were quickly transferred to a new flat-bottom 96-well plate. The optical absorbance at OD414 was measured with a microplate reader (BioTek, synergy H1). The hemolysis percentage was then normalized with respect to the averaged negative (0%) and positive (100%) controls. Three independent experiments were conducted.

[20] = system: A. baumannii YQ4 intracellular ROS; assay: ROS detection, DCFH-DA probe; type: cell-based, Acinetobacter baumannii; conditions: 16 μg/ml
Method: The intracellular ROS level was determined by the Reactive Oxygen Species Assay Kit of Beyotime Biotechnology (S0033S), according to the manufacturer's instructions. The log-phase culture of A. baumannii YQ4 was harvested and washed in PBS, and then diluted 10 times, approximately 10^7 CFU/ml. In total, 1 μl of DCFH-DA (10 μM) was added to 1 ml of cell culture and incubated at 37°C for 20 min. Then the fluorescence probe was fully removed by washing with PBS three times and resuspending in PBS, followed by the addition of COG1410 (16 μg/ml) or water. Rosup (50 μg/ml) was positive control in the kit. The culture was incubated at 37°C for 30 min. The fluorescence intensity was measured by a plate reader at an excitation wavelength of 488 nm and an emission wavelength of 525 nm. The experiment was performed in duplicate.

CC(=O)N[C@@H](C)C(=O)N[C@@H](CO)C(=O)NC(C)(C)C(=O)N[C@@H](CC(C)C)C(=O)N[C@@H](CCCNC(=N)N)C(=O)N[C@@H](CCCCN)C(=O)N[C@@H](CC(C)C)C(=O)NC(C)(C)C(=O)N[C@@H](CCCCN)C(=O)N[C@@H](CCCNC(=N)N)C(=O)N[C@@H](CC(C)C)C(=O)N[C@@H](CC(C)C)C(N)=O [COG1410, acetyl-AS-Aib-LRKL-Aib-KRLL-amide] (Ac-AS[Aib]LRKL[Aib]KRLL-NH2)
mature biofilm dispersed ([1]; 1× MIC): approximately 46% | biofilm eradicated ([1]; 4 × MIC): more than 88% | minimal bactericidal concentration (MBC) [2]: 16 µg/mL (≈ 11.4 µM) | MIC [3]: 16 µg/mL (≈ 11.4 µM) | MIC [4]: >256 µg/mL | MIC [5]: 16 µg/mL (≈ 11.4 µM) | SYTO-9/PI staining of treated cells (A. baumannii YQ4 [6]): red fluorescence | EC50 at 24 h [7]: 58.9 µg/mL (≈ 41.8 µM) | cell morphology by SEM (A. baumannii YQ4 [8]): intact, with little debris observed | biofilm formation, in words (A. baumannii YQ4 biofilm; 1/2 MIC, crystal violet): significantly reduced biofilm formation | reduction of biofilm mass (A. baumannii YQ4 biofilm; 1× MIC, 37°C, crystal violet OD600, versus untreated control): 55% | MIC [9]: >256 µg/mL | MIC (MDR Serratia mucosa YQ15): >256 µg/mL | change of inhibition diameter / degradation [10]: did not significantly change; also recorded: does not seem to be significantly degraded | MIC [11]: >256 µg/mL | MIC [12]: >256 µg/mL | elimination of the inoculum (A. baumannii YQ4 [13]; 5 × MIC (80 μg/ml), within 5 min, PBS, inoculum 1 × 10^8 CFU/ml): completely eliminated | time to eliminate large inocula (A. baumannii YQ4 [13]; inocula 10^8 CFU/ml): ≤ 30 min | electrophoretic mobility of pUC18 (plasmid pUC18; 1× MIC, 300 ng plasmid, 30 min room temperature, 1.5% agarose): only part of them migrated | electrophoretic mobility of pUC18 (plasmid pUC18; higher concentrations than 1× MIC): completely retarded | MIC [14]: 32 µg/mL (≈ 22.7 µM) | MIC (Bacillus subtilis 168): 1 µg/mL (≈ 0.71 µM) | increase of MIC after serial passage (A. baumanii YQ4): 4 fold | MIC [15]: 32 µg/mL (≈ 22.7 µM) | LC99.9 (A. baumannii YQ4 [16]; PBS with 50% (v/v) pooled human plasma): 8 µg/mL | LC99.9 (A. baumannii YQ4 [16]; PBS, lowest concentration that kills ≥99.9% of bacteria): 2 µg/mL | effect of lipid A modification of LPS on antimicrobial efficacy [17]: did not change the antimicrobial efficacy | MIC [18]: 16 µg/mL (≈ 11.4 µM) | EC50, lysis of half of the red blood cells [19]: 441 µg/mL | hemolysis ([19]; red cells of human, 128 μg/ml): < 5% | ROS production, in words ([20]; 37°C, Figure 3D): significantly lead to more ROS production | more ROS detected by DCFH-DA probe ([20]; treatment for 20 min as printed): 30%
